Laboratory results from patent US9206103B2, “Materials and methods for reduction of protein tau and treatment of neurodegenerative diseases” (UNIVERSITY OF SOUTH FLORIDA, priority 2010, dated 2015).
pEC50: −log10 of the molar value.

Key:
tau [1] = test: Western blot of tau levels in HeLa cells stably overexpressing tau (HeLa-C3); assay type: cell-based; conditions: for tau levels, effect of chirality: HeLa-C3, similar concentrations of enriched and racemic myricanol
Procedure: (§1) HeLa cells stably expressing VS-tagged 4R0N tau were maintained under G418 selection in Opti-Mem plus 10% FBS (complete media; Invitrogen) as previously described (Jinwal et al. (2009) J Neurosci 29, 12079-12088). IMR32 cells were maintained in Opti-mem plus 10% FBS and 2% 200 mM L-glutamine (Cellgro, Mediatech, Inc, Herndon, Va.). IMR32, M17, and H4 cells were maintained in Opti-mem plus 10% FBS and 2% 200 mM L-glutamine (Cellgro, Mediatech, Inc., Herndon, Va.). All cells were treated as indicated and harvested as previously described (Jinwal et al. (2009) J Neurosci 29, 12079-12088).
(§2) Protein levels were determined by using the Peirce BCA kit. Western blotting was performed by running SDS-PAGE, followed by transfer onto Immobilon-P (Millipore), as previously described (Dickey et al. (2005) Curr Alzheimer Res 2, 231-23; Koren et al. (2010) J. Bio. Chem. 285, 2498-2505).
(§3) To assess the effects of the aqueous bayberry extract on overexpressed and endogenous tau levels, a HeLa cell line stably transfected with tau (HeLa-C3) and a human IMR32 cell line derived from hippocampal neurons were treated with the bayberry extract at indicated doses for four hours. The hippocampus is the region first affected by tau deposition in Alzheimer's disease.
Briefly, the EtOH extract was subjected to acid hydrolysis to enrich the aglycone component of the extract, and was then fractionated via medium pressure liquid chromatography (MPLC). The bayberry crude extract was separated into 8 UV-active fractions by MPLC) (FIG. 4A). The MPLC extraction method was designed to identify UV active flavonoids such as myricetin).
To investigate the effect of chirality on anti-tau activity, HaLa-C3 cells were treated with the isolated (+)-αR,11S-myricanol (86% ee) and commercially available “racemic” myricanol (actually 9% ee) at the indicated concentrations.

tau [2] = test: Western blot of endogenous tau levels in IMR32 cells; assay type: cell-based, human; conditions: IMR32 hippocampus-derived cells
Procedure: as §1, §2, §3

tau [3] = test: Ex-vivo murine brain slice cultures, Western blot of tau levels; assay type: cell-based, mice; conditions: murine brain slices
Procedure: HeLa cells stably overexpressing tau (HeLa-C3; FIG. 2A) and IMR32 cells with endogenous tau levels (FIG. 2B) were treated for 4 hrs with aqueous bayberry extract at 0, 21, 35, 70 μg/ml (0, 0.3, 0.5, and 1.0% by volume). […] Tau levels are shown as a percentage of vehicle-treated cells ±SD. […] Treatments on whole brain murine slice cultures were performed in duplicate at doses of 0, 9, 18, 35, 70, 105, 140 μg/ml (0, 0.125, 0.25, 0.5, 1.0, and 2.0% by volume) of the bayberry extract. Each point in the graph (FIG. 2E) to the right represents the average tau reductions (n=8 slices) for all four mice at the given doses relative to the average vehicle ±SD. *p<0.05 by student's t test.
4 non-transgenic 5-month-old mice were decapitated and their brains were quickly removed. 400 μm coronal sections were made using a vibratome as previously described (Jinwal et al. J. Neurosci. 2009, 29, 12079-12088; Qiu et al. J. Neurosci. 2006, 26, 12943-12955; Mirnikjoo et al. J. Biol. Chem. 2001, 276, 10888-10896. NP100572Z). […]

Hsp70 ATPase = conditions: previously shown; cited from earlier work
[4] = Lactate dehydrogenase release assay for myricanol; assay type: cell-based

In the case of `COc1c2cc(c(O)c1OC)CCCC[C@@H](O)CCc1ccc(O)c-2c1` (racemic) [(+/−)-myricanol, reference compound], the “tau levels, effect of chirality” value (tau [1]) was “no activity”.

For `COc1c2cc(c(O)c1OC)CCCC[C@H](O)CCc1ccc(O)c-2c1` [(+)-αR,11S-myricanol], the pEC50 (tau [1]; HeLa-C3, Western blot, read-out: EC50 for reduction of tau levels) was 4.46, the “reduction of tau levels” value (tau [1]; HeLa-C3, overexpressed tau) was “potently reduced tau levels” and the “tau levels, effect of chirality” value (tau [1]) was “reduced significantly”. For the same molecule, the “reduction of tau levels” value (tau [2]) was “potently reduced tau levels” and the “reduction of tau levels” value (tau [3]) was “potently reduced tau levels”.

For `O=c1c(O)c(-c2cc(O)c(O)c(O)c2)oc2cc(O)cc(O)c12` [myricetin], the “inhibition of Hsp70 ATPase activity” value (Hsp70 ATPase) is listed as “inhibitor of Hsp70 ATPase activity”.

With `COc1c2cc(c(O)c1OC)CCCC[C@@H](O)CCc1ccc(O)c-2c1` [myricanol] the “toxicity by lactate dehydrogenase release” value [4] was “little toxicity”, the “tau reduction after pre-treatment with autophagy inhibitor” value (tau [1]; HeLa-C3, NH4Cl 20 mM pre-treatment) was “abrogated tau reductions” and the “tau reduction after pre-treatment with proteasomal inhibitor” value (tau [1]; HeLa-C3, epoxomicin 0.3 μM pre-treatment) was “abrogated tau reductions”. For the same molecule, the “reduction of intracellular tau levels compared with myricetin” value (tau [1]; comparison stated in the description) was “more effectively reduces intracellular tau levels than myricetin”.
